The values that follow come from patent US11352350B2, “IRAK degraders and uses thereof” (Kymera Therapeutics, Inc., priority 2018, dated 2022).

For assay [1], the target named is T1, IRAK4 (Homo sapiens (Human), UniProt Q9NWZ3). The experiment in a line: IRAK4 MSD degradation in OCI-LY10. Particulars: OCI-LY10, 4 hrs, MSD; read-out: IRAK4 MSD degradation in OCI-LY10 at 4 hrs: Average external-Abs DC50. Type of assay: cell-based. The procedure, abridged:
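OCI-LY10 cells treated with 8-point 1:3 dilutions (top 1 to 10 μM final) for 4 to 24 h at 37° C. Lysate IRAK4 measured by MSD sandwich immunoassay (2H9 capture, Y279 detection, SULFO-TAG anti-rabbit). DC50 from three-parameter logistic fit.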

Another assay relates to OCI-LY10. The experiment in a line: CTG Cell Viability Assay - OCI-LY10. The format is cell-based, human. Particulars: Homo sapiens, OCI-Ly10, 96 h, OCI-LY10, 4 days; read-out: CTG Cell Viability Assay - OCI-LY10: Average external-IC50. The procedure, abridged: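 OCI-LY10 cells exposed to 9-dose, 1:3 dilutions from 10 μM top (0.2% DMSO) for 4 days at 37° C, 5% CO2. Viability by CellTiter-Glo luminescence; IC50 from three-parameter logistic fit.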

For assay [2], the target named is T1, IRAK4. In words: IRAK4 degradation in human whole blood monocyte - flow cytometry. Type of assay: cell-based. Conditions: read-out: IRAK4 degradation in whole blood monocyte-Flow cytometry: Average external Abs IC50. A digest of the protocol: (§1)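 Fresh heparinized human whole blood dosed (10-point, 5-fold, 0.1% DMSO) for 20 h or 4 h at 37 °C, then fixed, stained and IRAK4 MFI quantified by flow in CD14+ monocytes and CD14− lymphocytes. DC50 and Dmax via 4-parameter logistic fit normalized to DMSO and 10 μM control.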
Background: A flow cytometer gives signals particle by particle.

Assay [3] deals with T1, IRAK4. In words: IRAK4 degradation in human whole blood lymphocyte - flow cytometry. The format is cell-based. Particulars: read-out: IRAK4 degradation in whole blood lymphocyte-Flow cytometry: Average external Abs IC50. A digest of the protocol: as §1
In assay [4] the test system is TNFα. In words: Human PBMC LPS TNFα assay. Conditions: hPBMC, LPS stimulation, read-out: IRAK4 hPBMC LPS TNF-α inhibition: Average external-IC50. Type of assay: cell-based. On the procedure: Human PBMC LPS TNFα assay. Frozen PBMCs were thawed into RPMI with 10% FBS/1% penicillin/streptomycin and same day plated into 96 well plates at 200,000 PBMC/[…] media per well. Compound plates were prepared in DMSO with D300 cassette as 8-point dose curves in duplicate, starting dose 2 μM, 5-fold. Compounds are added 200 nL into cells for final 200 μL per well. Compound and cells were incubated at 37° C., 5% CO2 for 20 hours. After twenty hours of pretreatment with the compounds, LPS (01 1 1:B4) (Sigma #L2637) was added at 100 ng/ml final concentration and PBMCs incubated an additional five hours at 37° C., 5% CO2. Following assay completion, PBMC plates were spun down at 2000 rpm for 10 minutes. 100 uL of supernatant was carefully removed and placed into a new 96 well Costar (#3879) plate and stored at −80° C. until further analysis. Meso scale Discovery (MSD) human V-plex assays were used to measure cytokine levels. On day of cytokine analysis, supernatant samples were thawed, diluted with V-plex diluent #2, and directly to MSD plates. Assay was further completed per standard manufacturer's protocol. Cytokine data was normalized to LPS stimulated and unstimulated controls. Prism Graphpad was used to generate IC50 using 4 parameter logistic regression curve, free-fit.

Assay [5] relates to TNFα. In words: Human whole blood LPS TNFα assay. Conditions: 20 h pretreatment, LPS 5 h, read-out: IRAK4 human whole blood LPS TNFa inhibition: Average external-IC50. Type of assay: cell-based. The procedure, abridged:
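Fresh human whole blood pretreated 20 h at 37 °C with compound (8-point, 5-fold dilution from 2 μM start), then stimulated with 100 ng/ml LPS (final) for 5 h. Plasma TNFα quantified by MSD V-plex, normalised to stimulated and unstimulated controls; IC50 from 4-parameter logistic fit.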

T1 sequence (Q9NWZ3 whole entry): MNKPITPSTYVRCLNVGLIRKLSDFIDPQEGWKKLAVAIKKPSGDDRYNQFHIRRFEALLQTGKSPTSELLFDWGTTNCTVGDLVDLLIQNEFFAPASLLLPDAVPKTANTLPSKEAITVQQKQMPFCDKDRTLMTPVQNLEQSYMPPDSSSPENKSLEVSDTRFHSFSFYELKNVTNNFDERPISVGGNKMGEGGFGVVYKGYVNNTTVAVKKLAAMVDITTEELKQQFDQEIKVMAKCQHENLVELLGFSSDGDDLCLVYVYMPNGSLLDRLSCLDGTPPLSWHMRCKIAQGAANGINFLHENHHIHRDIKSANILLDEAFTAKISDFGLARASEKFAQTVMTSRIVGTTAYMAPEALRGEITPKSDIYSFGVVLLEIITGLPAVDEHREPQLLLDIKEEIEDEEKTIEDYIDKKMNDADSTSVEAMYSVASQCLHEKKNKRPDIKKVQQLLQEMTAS

Turning to `CN(C[C@H]1CN(CCCc2ccc3c(c2)n(C)c(=O)n3C2CCC(=O)NC2=O)CCO1)C[C@H]1CC[C@H](n2cc(NC(=O)c3coc(-c4ccnc(NCC5CC5)c4)n3)c(C(F)F)n2)CC1` (stereo partly drawn) [I-34], the DC50 at IRAK4 [1] was less than 10 nM; on IRAK4 [3] it was less than 50 nM. Moreover, the IC50 (as a rule, the concentration that gives 50% inhibition) in the assay with OCI-LY10 is more than 1000 nM; at IRAK4 [2], less than 50 nM; in the assay on TNFα [4] it was 100 to 500 nM; in the assay on TNFα [5], 100 to 500 nM.
On to `C=C(C)c1nn([C@H]2CC[C@H](C(=O)N(C)CCCOCCCc3cccc4c3n(C)c(=O)n4C3CCC(=O)NC3=O)CC2)cc1NC(=O)c1coc(-c2ccnc(NCC3CC3)c2)n1` (stereo partly drawn) [I-31], for which the results for the DC50 at IRAK4 [1], on IRAK4 [2] and at IRAK4 [3] were 100 to 1000 nM, 50 to 100 nM and 100 to 500 nM, respectively. The 50% inhibitory concentration (IC50) was 100 to 500 nM with OCI-LY10, 100 to 500 nM with TNFα [4] and more than 1000 nM in the assay on TNFα [5].
Regarding `CN(C[C@@H]1CN(CCCc2ccc3c(c2)n(C)c(=O)n3C2CCC(=O)NC2=O)CCO1)C(=O)[C@H]1CC[C@H](n2cc(NC(=O)c3coc(-c4ccnc(NCC5CC5)c4)n3)c(C(F)F)n2)CC1` (stereo partly drawn) [I-17], the DC50 is less than 10 nM at IRAK4 [1] and 50 to 100 nM at IRAK4 [3]. In addition, the IC50 in the assay with OCI-LY10 was 100 to 500 nM; at IRAK4 [2], less than 50 nM; in the assay with TNFα [4] it was less than 50 nM; in the assay with TNFα [5] it was 500 to 1000 nM.
Consider `Cn1c(=O)n(C2CCC(=O)NC2=O)c2cccc(CCCOCCOCCNC[C@H]3CC[C@H](n4cc(NC(=O)c5coc(-c6ccnc(NCC7CC7)c6)n5)c(C(F)F)n4)CC3)c21` (stereo partly drawn) [I-2], for which the DC50 at IRAK4 [1] was 100 to 1000 nM; on IRAK4 [3] it was less than 50 nM. Besides, the IC50 is 100 to 500 nM in the assay on OCI-LY10, less than 50 nM at IRAK4 [2], 100 to 500 nM in the assay on TNFα [4] and more than 1000 nM in the assay with TNFα [5].
On to `Cn1c(=O)n(C2CCC(=O)NC2=O)c2ccc(CCOCCN3CCO[C@@H](CNC[C@H]4CC[C@H](n5cc(NC(=O)c6cnn7ccc(N8CCNCC8)nc67)c(C(F)F)n5)CC4)C3)cc21` (stereo partly drawn) [I-41], for which the DC50 at IRAK4 [1] is less than 10 nM; at IRAK4 [3] it was less than 50 nM. For the same molecule, the IC50 in the assay on OCI-LY10 was more than 1000 nM; at IRAK4 [2] it was less than 50 nM; with TNFα [4], 100 to 500 nM; with TNFα [5] it was 500 to 1000 nM.
For the molecule `Cn1c(=O)n(C2CCC(=O)NC2=O)c2ccc(CCCN3CCO[C@H](CNC[C@H]4CC[C@H](n5cc(NC(=O)c6coc(-c7ccnc(NCC8CC8)c7)n6)c(C(F)F)n5)CC4)C3)cc21` (stereo partly drawn) [I-35], the DC50 at IRAK4 [1] lay within 10 to 100 nM; at IRAK4 [3], 50 to 100 nM. Also, the IC50 is less than 50 nM in the assay on OCI-LY10, less than 50 nM on IRAK4 [2], 100 to 500 nM in the assay with TNFα [4] and 500 to 1000 nM with TNFα [5].
As to `Cn1c(=O)n(C2CCC(=O)NC2=O)c2cccc(CCCN3CCO[C@H](CNC[C@H]4CC[C@H](n5cc(NC(=O)c6coc(-c7ccnc(NCC8CC8)c7)n6)c(C(F)F)n5)CC4)C3)c21` (stereo partly drawn) [I-37], the values for the DC50 at IRAK4 [1] and on IRAK4 [3] were 10 to 100 nM and less than 50 nM, respectively. In addition, the IC50 is less than 50 nM in the assay with OCI-LY10, less than 50 nM on IRAK4 [2], less than 50 nM in the assay on TNFα [4] and 100 to 500 nM in the assay on TNFα [5].
For `CN(C[C@H]1CN(CC#Cc2ccc3c(c2)n(C)c(=O)n3C2CCC(=O)NC2=O)CCO1)C[C@H]1CC[C@H](n2cc(NC(=O)c3coc(-c4ccnc(NCC5CC5)c4)n3)c(C(F)F)n2)CC1` (stereo partly drawn) [I-61], the DC50 at IRAK4 [1] is 10 to 100 nM; on IRAK4 [2], 50 to 100 nM; at IRAK4 [3] it was 100 to 500 nM. Also, the IC50 in the assay with OCI-LY10 is 100 to 500 nM; in the assay with TNFα [4], 100 to 500 nM; in the assay on TNFα [5], more than 1000 nM.
